Tests used:
T-47D cells = test: Cell viability assay; format: cell-based, human; settings: Homo sapiens, T47D, 72 h, read-out: T-47D IC50
human ERα LBD = biological target: T1, human ERα LBD (Homo sapiens, UniProt P03372); test: Competitive fluorescence polarization binding assay, ERα; settings: for RBA ERα: IC50 estradiol/IC50 compound × 100, estradiol = 100%; for α/β ratio: ratio of RBA ERα to RBA ERβ
T1 sequence (P03372 311-547 limits assumed): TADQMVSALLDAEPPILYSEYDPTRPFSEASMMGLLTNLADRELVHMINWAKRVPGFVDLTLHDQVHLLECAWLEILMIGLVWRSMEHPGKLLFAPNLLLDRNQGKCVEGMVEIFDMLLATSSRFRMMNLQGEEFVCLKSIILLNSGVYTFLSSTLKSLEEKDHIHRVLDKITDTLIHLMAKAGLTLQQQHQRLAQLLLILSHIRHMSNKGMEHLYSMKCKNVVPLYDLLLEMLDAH

MCF-7 cells = test: Cell viability assay; format: cell-based, human; settings: Homo sapiens, MCF7, 72 h, read-out: MCF-7 IC50
T-47D^Y537S cells = test: Cell viability assay; format: cell-based, human; settings: Homo sapiens, 72 h, read-out: T-47D^Y537S IC50
human ERβ LBD = human ERβ LBD (Homo sapiens, UniProt Q92731); test: Competitive fluorescence polarization binding assay, ERβ; settings: for RBA ERβ: IC50 estradiol/IC50 compound × 100, estradiol = 100%
T-47D^D538G cells = test: Cell viability assay; format: cell-based, human; settings: Homo sapiens, 72 h, read-out: T-47D^D538G IC50
ERα = biological target: T2, ERα (Homo sapiens, UniProt P03372); test: Immunoblot analysis of ERα degradation in MCF-7 cells; format: cell-based; settings: MCF-7 cells, 1 or 5 μmol/L
T2 sequence (P03372 1-595): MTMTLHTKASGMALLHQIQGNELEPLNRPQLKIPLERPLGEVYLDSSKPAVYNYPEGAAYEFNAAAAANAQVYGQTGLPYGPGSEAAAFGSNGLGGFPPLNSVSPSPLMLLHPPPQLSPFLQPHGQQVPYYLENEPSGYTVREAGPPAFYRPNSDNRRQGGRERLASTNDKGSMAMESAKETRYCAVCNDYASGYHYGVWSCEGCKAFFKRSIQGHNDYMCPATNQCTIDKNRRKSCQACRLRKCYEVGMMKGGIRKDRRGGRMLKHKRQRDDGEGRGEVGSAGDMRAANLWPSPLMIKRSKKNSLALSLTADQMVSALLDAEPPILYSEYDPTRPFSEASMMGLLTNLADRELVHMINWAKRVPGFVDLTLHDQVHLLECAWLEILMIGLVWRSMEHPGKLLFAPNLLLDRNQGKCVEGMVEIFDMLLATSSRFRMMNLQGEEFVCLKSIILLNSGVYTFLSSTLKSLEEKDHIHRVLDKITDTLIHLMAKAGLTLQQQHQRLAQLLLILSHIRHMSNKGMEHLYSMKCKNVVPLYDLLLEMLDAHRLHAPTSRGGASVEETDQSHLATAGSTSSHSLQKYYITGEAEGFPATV

Sequence of human ERβ LBD (Q92731 264-498 limits assumed): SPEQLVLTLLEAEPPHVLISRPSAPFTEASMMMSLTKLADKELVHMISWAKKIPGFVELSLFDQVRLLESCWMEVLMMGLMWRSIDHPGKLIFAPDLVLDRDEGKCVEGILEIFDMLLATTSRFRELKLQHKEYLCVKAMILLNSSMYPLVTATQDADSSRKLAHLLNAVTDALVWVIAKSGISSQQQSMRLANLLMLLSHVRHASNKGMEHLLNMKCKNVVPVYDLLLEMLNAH

## CC(C)=CC(=O)Nc1ccc(C2=C(c3ccc(O)cc3)C3OC2CC3S(=O)(=O)N(CC(F)(F)F)c2cccc(O)c2)cc1 (stereo not shown) [Compound 29h, N-(4-(3-(4-Hydroxyphenyl)-5-(N-(3-hydroxyphenyl)-N-(2,2,2-trifluoroethyl)sulfamoyl)-7-oxabicyclo[2.2.1]hept-2-en-2-yl)phenyl)-3-methylbut-2-enamide]
T-47D cells
  IC50: 3.92 ± 0.01 µM
Human ERα LBD
  Ki: 0.35 nM
  RBA ERα: 7.89 ± 0.11%
  α/β ratio: 17.93
MCF-7 cells
  IC50: 980 ± 350 nM
T-47D^Y537S cells
  IC50: 2.99 ± 0.22 µM
Human ERβ LBD
  Ki: 15.2 nM
  RBA ERβ: 0.44 ± 0.02%
T-47D^D538G cells
  IC50: 2.84 ± 0.14 µM
ERα
  ERα degradation (immunoblot): effective in inducing ERα degradation

## CCN(c1ccc(OC)cc1)S(=O)(=O)C1CC2OC1C(c1ccc(O)cc1)=C2c1ccc(NC(=O)C=C(C)C)cc1 (stereo not shown) [Compound 29j, N-(4-(5-(N-Ethyl-N-(4-methoxyphenyl)sulfamoyl)-3-(4-hydroxyphenyl)-7-oxabicyclo[2.2.1]hept-2-en-2-yl)phenyl)-3-methylbut-2-enamide]
T-47D cells
  IC50: 7.92 ± 0.19 µM
Human ERα LBD
  Ki: 0.63 nM
  RBA ERα: 4.36 ± 0.33%
  α/β ratio: 8.55
MCF-7 cells
  IC50: 290 ± 30 nM
T-47D^Y537S cells
  IC50: 12.7 ± 0.53 µM
Human ERβ LBD
  Ki: 13.1 nM
  RBA ERβ: 0.51 ± 0.09%
T-47D^D538G cells
  IC50: 8.25 ± 0.45 µM
ERα
  ERα degradation (immunoblot): effective in inducing ERα degradation

## CC(C)CC(=O)Nc1ccc(C2=C(c3ccc(O)cc3)[C@H]3O[C@@H]2CC3S(=O)(=O)N(CC(F)(F)F)c2ccc(O)cc2)cc1 (mixture of isomers) [Compound 29k, N-(4-((1R,4R)-3-(4-Hydroxyphenyl)-5-(N-(4-hydroxyphenyl)-N-(2,2,2-trifluoroethyl)sulfamoyl)-7-oxabicyclo[2.2.1]hept-2-en-2-yl)phenyl)-3-methylbutanamide]
T-47D cells
  IC50: > 31 µM
Human ERα LBD
  Ki: 1.15 nM
  RBA ERα: 2.41 ± 0.21%
  α/β ratio: 1.66
MCF-7 cells
  IC50: 1060 ± 190 nM
T-47D^Y537S cells
  IC50: > 31 µM
Human ERβ LBD
  Ki: 4.6 nM
  RBA ERβ: 1.45 ± 0.12%
T-47D^D538G cells
  IC50: > 31 µM
ERα
  ERα degradation (immunoblot): impaired degradation ability

## C/C=C/C(=O)Nc1ccc(OS(=O)(=O)C2CC3OC2C(c2ccc(O)cc2)=C3c2ccc(O)cc2)cc1 (stereo not shown) [Compound 26b, 4-((E)-But-2-enamido)phenyl-5,6-bis(4-hydroxyphenyl)-7-oxabicyclo[2.2.1]hept-5-ene-2-sulfonate]
T-47D cells
  IC50: 19.4 ± 0.54 µM
Human ERα LBD
  Ki: 0.58 nM
  RBA ERα: 4.77 ± 0.16%
  α/β ratio: 11.93
MCF-7 cells
  IC50: 9180 ± 950 nM
T-47D^Y537S cells
  IC50: > 31 µM
Human ERβ LBD
  Ki: 16.7 nM
  RBA ERβ: 0.40 ± 0.05%
T-47D^D538G cells
  IC50: > 31 µM

## O=C(CBr)Nc1ccc(C2=C(c3ccc(O)cc3)C3OC2CC3S(=O)(=O)Oc2ccccc2)cc1 (stereo not shown) [Compound 28e, Phenyl-5-(4-(2-bromoacetamido)phenyl)-6-(4-hydroxyphenyl)-7-oxabicyclo[2.2.1]hept-5-ene-2-sulfonate]
T-47D cells
  IC50: 19.7 ± 0.32 µM
Human ERα LBD
  Ki: 0.29 nM
  RBA ERα: 9.44 ± 0.40%
  α/β ratio: 26.22
MCF-7 cells
  IC50: 1100 ± 140 nM
T-47D^Y537S cells
  IC50: > 31 µM
Human ERβ LBD
  Ki: 18.5 nM
  RBA ERβ: 0.36 ± 0.03%
T-47D^D538G cells
  IC50: > 31 µM

## CC(C)=CC(=O)Nc1ccc(C2=C(c3ccc(O)cc3)C3CC(S(=O)(=O)N(CC(F)(F)F)c4ccccc4)C2O3)cc1 (stereo not shown) [Compound 29e, N-(4-(3-(4-Hydroxyphenyl)-6-(N-phenyl-N-(2,2,2-trifluoroethyl)sulfamoyl)-7-oxabicyclo[2.2.1]hept-2-en-2-yl)phenyl)-3-methylbut-2-enamide]
T-47D cells
  IC50: 5.1 ± 0.32 µM
Human ERα LBD
  Ki: 0.29 nM
  RBA ERα: 9.50 ± 0.09%
  α/β ratio: 33.9
MCF-7 cells
  IC50: 660 ± 120 nM
T-47D^Y537S cells
  IC50: 1.79 ± 0.17 µM
Human ERβ LBD
  Ki: 23.8 nM
  RBA ERβ: 0.28 ± 0.05%
T-47D^D538G cells
  IC50: 5.18 ± 0.31 µM

## Nc1ccc(C2=C(c3ccc(O)cc3)C3OC2CC3S(=O)(=O)N(CC(F)(F)F)c2ccc(O)cc2)cc1 (stereo not shown) [Compound 29l, 5-(4-Aminophenyl)-N,6-bis(4-hydroxyphenyl)-N-(2,2,2-trifluoroethyl)-7-oxabicyclo[2.2.1]hept-5-ene-2-sulfonamide]
T-47D cells
  IC50: 8.11 ± 0.37 µM
Human ERα LBD
  Ki: 1.14 nM
  RBA ERα: 2.43 ± 0.27%
  α/β ratio: 1.03
MCF-7 cells
  IC50: 3170 ± 330 nM
T-47D^Y537S cells
  IC50: > 31 µM
Human ERβ LBD
  Ki: 2.84 nM
  RBA ERβ: 2.35 ± 0.33%
T-47D^D538G cells
  IC50: > 31 µM

## C=CC(=O)Nc1ccc(OS(=O)(=O)C2CC3OC2C(c2ccc(O)cc2)=C3c2ccc(O)cc2)cc1 (stereo not shown) [Compound 26a, 4-Acrylamidophenyl-5,6-bis(4-hydroxyphenyl)-7-oxabicyclo[2.2.1]hept-5-ene-2-sulfonate]
T-47D cells
  IC50: > 31 µM
Human ERα LBD
  RBA ERα: 8.04 ± 0.87%
  α/β ratio: 2.08
MCF-7 cells
  IC50: 7720 ± 640 nM
T-47D^Y537S cells
  IC50: 27.2 ± 0.73 µM
Human ERβ LBD
  RBA ERβ: 3.86 ± 0.34%
T-47D^D538G cells
  IC50: > 31 µM

## CC(C)=CC(=O)Nc1ccc(C2=C(c3ccc(O)cc3)C3CC(S(=O)(=O)Oc4ccc(O)cc4)C2O3)cc1 (stereo not shown) [Compound 28f, 4-Hydroxyphenyl-5-(4-hydroxyphenyl)-6-(4-(3-methylbut-2-enamido)phenyl)-7-oxabicyclo[2.2.1]hept-5-ene-2-sulfonate]
T-47D cells
  IC50: 8.53 ± 0.12 µM
Human ERα LBD
  Ki: 0.35 nM
  RBA ERα: 7.93 ± 0.34%
  α/β ratio: 2.41
MCF-7 cells
  IC50: 930 ± 190 nM
T-47D^Y537S cells
  IC50: 9.11 ± 0.35 µM
Human ERβ LBD
  Ki: 2.03 nM
  RBA ERβ: 3.29 ± 0.25%
T-47D^D538G cells
  IC50: > 31 µM

## O=C(CCl)Nc1ccc(C2=C(c3ccc(O)cc3)C3CC(S(=O)(=O)Oc4ccccc4)C2O3)cc1 (stereo not shown) [Compound 28d, Phenyl-6-(4-(2-chloroacetamido)phenyl)-5-(4-hydroxyphenyl)-7-oxabicyclo[2.2.1]hept-5-ene-2-sulfonate]
T-47D cells
  IC50: 13.3 ± 0.77 µM
Human ERα LBD
  Ki: 0.8 nM
  RBA ERα: 3.46 ± 0.02%
  α/β ratio: 3.76
MCF-7 cells
  IC50: 660 ± 120 nM
T-47D^Y537S cells
  IC50: > 31 µM
Human ERβ LBD
  Ki: 7.25 nM
  RBA ERβ: 0.92 ± 0.17%
T-47D^D538G cells
  IC50: > 31 µM

## C/C=C/C(=O)Nc1ccc(C2=C(c3ccc(O)cc3)C3OC2CC3S(=O)(=O)N(CC(F)(F)F)c2ccc(O)cc2)cc1 (stereo not shown) [Compound 29b, (E)-N-(4-(3-(4-Hydroxyphenyl)-5-(N-(4-hydroxyphenyl)-N-(2,2,2-trifluoroethyl)sulfamoyl)-7-oxabicyclo[2.2.1]hept-2-en-2-yl)phenyl)but-2-enamide]
T-47D cells
  IC50: 5.12 ± 0.33 µM
Human ERα LBD
  Ki: 0.14 nM
  RBA ERα: 19.82 ± 0.19%
  α/β ratio: 31.46
MCF-7 cells
  IC50: 360 ± 40 nM
T-47D^Y537S cells
  IC50: > 31 µM
Human ERβ LBD
  Ki: 10.6 nM
  RBA ERβ: 0.63 ± 0.14%
T-47D^D538G cells
  IC50: > 31 µM

## O=C(CCl)Nc1ccc(OS(=O)(=O)C2CC3OC2C(c2ccc(O)cc2)=C3c2ccc(O)cc2)cc1 (stereo not shown) [Compound 26e, 4-(2-Chloroacetamido)phenyl-5,6-bis(4-hydroxyphenyl)-7-oxabicyclo[2.2.1]hept-5-ene-2-sulfonate]
T-47D cells
  IC50: 8.2 ± 0.36 µM
Human ERα LBD
  Ki: 2.71 nM
  RBA ERα: 1.02 ± 0.13%
  α/β ratio: 1.85
MCF-7 cells
  IC50: 3420 ± 320 nM
T-47D^Y537S cells
  IC50: 8.85 ± 0.61 µM
Human ERβ LBD
  Ki: 12.1 nM
  RBA ERβ: 0.55 ± 0.02%
T-47D^D538G cells
  IC50: 7.86 ± 0.37 µM

## CC(C)=CC(=O)Nc1ccc(OS(=O)(=O)C2CC3OC2C(c2ccc(O)cc2)=C3c2ccc(O)cc2)cc1 (stereo not shown) [Compound 26c, 4-(3-Methylbut-2-enamido)phenyl-5,6-bis(4-hydroxyphenyl)-7-oxabicyclo[2.2.1]hept-5-ene-2-sulfonate]
T-47D cells
  IC50: 15.8 ± 0.68 µM
Human ERα LBD
  Ki: 0.84 nM
  RBA ERα: 3.28 ± 0.17%
  α/β ratio: 2.50
MCF-7 cells
  IC50: 3160 ± 630 nM
T-47D^Y537S cells
  IC50: 12 ± 0.4 µM
Human ERβ LBD
  Ki: 5.09 nM
  RBA ERβ: 1.31 ± 0.66%
T-47D^D538G cells
  IC50: 8.75 ± 0.25 µM

## CC(C)=CC(=O)Nc1ccc(C2=C(c3ccc(O)cc3)C3CC(S(=O)(=O)N(CC(F)(F)F)c4ccc(C)cc4)C2O3)cc1 (stereo not shown) [Compound 29d, N-(4-(3-(4-Hydroxyphenyl)-6-(N-(p-tolyl)-N-(2,2,2-trifluoroethyl)sulfamoyl)-7-oxabicyclo[2.2.1]hept-2-en-2-yl)phenyl)-3-methylbut-2-enamide]
T-47D cells
  IC50: 8.33 ± 0.22 µM
Human ERα LBD
  Ki: 0.43 nM
  RBA ERα: 6.49 ± 0.21%
  α/β ratio: 4.74
MCF-7 cells
  IC50: 750 ± 210 nM
T-47D^Y537S cells
  IC50: > 31 µM
Human ERβ LBD
  Ki: 4.87 nM
  RBA ERβ: 1.37 ± 0.11%
T-47D^D538G cells
  IC50: > 31 µM

— paper PMC10692362 (Acta Pharmaceutica Sinica. B, 2023)
